Tests used:
PI3-Kα = PI3-Kα (Mus musculus (Mouse), UniProt P42337); experiment: PI3-Kα Biochemical Assay (fluorescence polarization kinase assay)
Summary of the method: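 Co-expressed mouse p110/p85 PI3-Kα (4 nM stock) acting on PI(4,5)P2 (60 μM stock) with ATP/MgCl2 in HEPES pH 7.4 buffer, 35 min at room temperature, then EDTA stop. PI(3,4,5)P3 product detected by displacement of TAMRA-PIP3 from Grip1 PH domain (FP, 535/580 nm). IC50 from sigmoidal fit of % inhibition.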

[1] = test system: PI3-K in BT20 cells (phosphorylation of AKT at serine 473); experiment: PI3-Kα Cellular Assay (AKT Ser473 phosphorylation ELISA in BT20 cells); assay type: cell-based, human; conditions: Homo sapiens, BT-20, pAKT Ser473 ELISA, 1 hour incubation
Summary of the method: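 Cells seeded overnight in 0.5% FBS, then exposed 1 h at 37 °C to an 11-concentration 1:3 dilution series, in duplicate.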

PI3-Kα, sequence (P42337 whole entry, the tested form may be a part): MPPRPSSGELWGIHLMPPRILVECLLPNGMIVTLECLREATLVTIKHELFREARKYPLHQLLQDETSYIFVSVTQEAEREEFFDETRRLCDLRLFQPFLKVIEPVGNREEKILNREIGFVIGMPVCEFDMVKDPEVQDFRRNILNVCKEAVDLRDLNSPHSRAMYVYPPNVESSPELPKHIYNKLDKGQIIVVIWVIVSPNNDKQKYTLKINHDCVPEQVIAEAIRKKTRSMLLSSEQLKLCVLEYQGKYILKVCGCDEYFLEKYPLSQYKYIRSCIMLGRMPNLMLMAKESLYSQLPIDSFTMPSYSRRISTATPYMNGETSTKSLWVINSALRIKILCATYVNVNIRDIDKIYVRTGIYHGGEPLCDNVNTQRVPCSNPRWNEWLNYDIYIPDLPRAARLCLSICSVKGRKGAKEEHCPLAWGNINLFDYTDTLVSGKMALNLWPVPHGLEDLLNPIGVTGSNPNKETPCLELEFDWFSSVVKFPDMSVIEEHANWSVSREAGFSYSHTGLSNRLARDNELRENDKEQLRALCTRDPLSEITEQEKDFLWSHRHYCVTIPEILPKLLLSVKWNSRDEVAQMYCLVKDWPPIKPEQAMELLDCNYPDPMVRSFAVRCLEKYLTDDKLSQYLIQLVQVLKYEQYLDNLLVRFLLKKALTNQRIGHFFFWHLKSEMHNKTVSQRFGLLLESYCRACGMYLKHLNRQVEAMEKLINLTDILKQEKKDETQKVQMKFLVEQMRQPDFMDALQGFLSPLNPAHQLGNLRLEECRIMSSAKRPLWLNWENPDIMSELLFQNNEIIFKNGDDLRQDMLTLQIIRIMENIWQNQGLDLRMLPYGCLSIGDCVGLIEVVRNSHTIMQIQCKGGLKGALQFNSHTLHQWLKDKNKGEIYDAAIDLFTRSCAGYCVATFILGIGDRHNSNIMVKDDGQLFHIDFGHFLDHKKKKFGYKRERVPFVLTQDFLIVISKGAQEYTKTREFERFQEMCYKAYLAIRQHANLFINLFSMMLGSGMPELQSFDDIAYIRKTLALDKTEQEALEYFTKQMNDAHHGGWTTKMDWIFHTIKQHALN
PI3-Kα, sequence (P26450 whole entry partner, the tested form may be a part): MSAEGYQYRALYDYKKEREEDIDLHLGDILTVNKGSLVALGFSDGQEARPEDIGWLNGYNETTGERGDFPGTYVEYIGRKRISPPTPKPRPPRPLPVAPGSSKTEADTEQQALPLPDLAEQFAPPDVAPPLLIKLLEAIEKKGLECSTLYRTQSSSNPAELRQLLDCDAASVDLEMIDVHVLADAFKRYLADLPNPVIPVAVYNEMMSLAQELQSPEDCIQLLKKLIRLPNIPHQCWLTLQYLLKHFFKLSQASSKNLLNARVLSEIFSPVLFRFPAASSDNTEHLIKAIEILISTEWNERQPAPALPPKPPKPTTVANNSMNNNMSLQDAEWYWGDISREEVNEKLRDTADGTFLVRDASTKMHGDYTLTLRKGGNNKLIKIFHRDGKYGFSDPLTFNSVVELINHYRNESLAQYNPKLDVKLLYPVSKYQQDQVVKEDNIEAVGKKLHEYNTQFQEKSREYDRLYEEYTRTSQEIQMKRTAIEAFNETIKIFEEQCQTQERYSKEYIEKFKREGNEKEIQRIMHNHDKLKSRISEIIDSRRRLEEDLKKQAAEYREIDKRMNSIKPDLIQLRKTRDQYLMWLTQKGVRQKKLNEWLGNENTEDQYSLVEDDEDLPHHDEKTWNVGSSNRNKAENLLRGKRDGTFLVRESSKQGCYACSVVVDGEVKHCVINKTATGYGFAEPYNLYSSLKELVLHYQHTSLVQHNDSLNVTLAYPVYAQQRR

IC50 (PI3-Kα) [µM] | IC50 [1] [µM] | Compound
0.0095 | 0.0172 | CO[C@H]1CC[C@H](n2c(=O)c(-c3cc[nH]n3)cc3c(C)nc(N)nc32)CC1 [Compound 187, 2-amino-8-(trans-4-methoxycyclohexyl)-4-methyl-6-(1H-pyrazol-3-yl)pyrido[2,3-d]pyrimidin-7(8H)-one]
0.0094 | 0.0718 | Cc1nc(N)nc2c1cc(-c1ccc(OC(C)C)nc1)c(=O)n2[C@H]1CC[C@H](O)CC1 [Compound 188, 2-amino-8(trans-4-hydroxycyclohexyl)-6-(6-isopropoxypyridin-3-yl)-4-methylpyrido[2,3-d]pyrimidin-7(8H)-one]
0.0027 | 0.0212 | CCOc1ccc(-c2cc3c(C)nc(N)nc3n([C@H]3CC[C@H](O)CC3)c2=O)cn1 [Compound 189, 2-amino-6-(6-ethoxypyridin-3-yl)-8-(trans-4-hydroxycyclohexyl)-4-methylpyrido[2,3-d]pyrimidin-7(8H)-one]
0.47 | 2.69 | Cc1nc(N)nc2c1cc(-c1ccc(C#N)nc1)c(=O)n2[C@H]1CC[C@H](O)CC1 [Compound 190, 5-[2-amino-8-(trans-4-hydroxycyclohexyl)-4-methyl-7-oxo-7,8-dihydropyrido[2,3-d]pyrimidin-6-yl]pyridine-2-carbonitrile]
0.093 | 0.00508 | Cc1nc(N)nc2c1cc(-c1cnn(C(=O)OC(C)(C)C)c1)c(=O)n2N1CCCC1 [Compound 192, Tert-butyl-4-(2-amino-4-methyl-7-oxo-8-(pyrrolidin-1-yl)-7,8-dihydropyrido[2,3-d]pyrimidin-6-yl)-1H-pyrazole-1-carboxylate]
0.188 | 0.236 | Cc1nc(N)nc2c1cc(-c1cn[nH]c1)c(=O)n2CC(F)(F)F [Compound 197, 2-amino-4-methyl-6-(1H-pyrazol-4-yl)-8-(2,2,2-trifluoroethyl)pyrido[2,3-d]pyrididin-7(8H)-one]
0.13 | 0.262 | COc1ccc(-c2cc3c(C)nc(N)nc3n(CC(F)(F)F)c2=O)cn1 [Compound 198, 2-amino-6-(6-methoxypyridin-3-yl)-4-methyl-8-(2,2,2-trifluoroethyl)pyrido[2,3-d]pyrimidin-7(8H)-one]
0.0185 | 0.0199 | Cc1nc(N)nc2c1cc(-c1cn[nH]c1)c(=O)n2C1CCOCC1 [Compound 199, 2-amino-4-methyl-6-(1H-pyrazol-4-yl)-8-(tetrahydro-2H-pyran-4-yl)pyrido[2,3-d]pyrimidin-7(8H)-one]
0.0037 | 0.0153 | Cc1nc(N)nc2c1cc(-c1cnc3[nH]ccc3c1)c(=O)n2C1CCOCC1 [Compound 201, 2-amino-4-methyl-6-(1H-pyrrolo[2,3-b]pyridin-5-yl)-8-(tetrahydro-2H-pyran-4-yl)pyrido[2,3-d]pyrimidin-7(8H)-one]
0.23 | 1.67 | Cc1nc(N)nc2c1cc(Br)c(=O)n2C1CCOC1 (stereo not drawn) [Compound 202, 2-amino-6-bromo-4-methyl-8-(tetrahydrofuran-3-yl)pyrido[2,3-d]pyrimidin-7(8H)-one]
0.02 | 0.0258 | Cc1nc(N)nc2c1cc(-c1cn[nH]c1)c(=O)n2C1CCOC1 (stereo not drawn) [Compound 203]
0.002 | 0.0119 | Cc1nc(N)nc2c1cc(-c1cnc3[nH]ccc3c1)c(=O)n2C1CCC1 [Compound 207, 2-amino-8-cyclobutyl-4-methyl-6-(1H-pyrrolo[2,3-d]pyridin-5-yl)pyrido[2,3-d]pyrimidin-7(8H)-one]
0.011 | 0.064 | COc1ccc(-c2cc3c(C)nc(N)nc3n(C(C)C)c2=O)cn1 [Compound 209, 2-amino-8-isopropyl-6-(6-methoxypyridin-3-yl)-4-methylpyrido[2,3-d]pyrimidin-7(8H)-one]
0.0023 | 0.00677 | Cc1nc(N)nc2c1cc(-c1cnc3[nH]ccc3c1)c(=O)n2C(C)C [Compound 210, 2-amino-8-isopropyl-4-methyl-6-(1H-pyrrolo[2,3-d]pyridin-5-yl)pyrido[2,3-d]pyrimidin-7(8H)-one]
0.017 | 0.138 | Cc1nc(N)nc2c1cc(-c1cnc3[nH]ccc3c1)c(=O)n2C1CC1 [Compound 213, 2-amino-8-cyclopropyl-4-methyl-6-(1H-pyrrolo[2,3-b]pyridin-5-yl)pyrido[2,3-d]pyrimidin-7(8H)-one]
0.048 | 0.594 | CNc1nc(C)c2cc(Br)c(=O)n(CC3CCOC3)c2n1 (stereo not drawn) [Compound 214, 6-bromo-4-methyl-2-(methylamino)-8-((tetrahydrofuran-3-yl)methyl)pyrido[2,3-d]pyrimidin-7(8H)-one]
0.006 | 0.0221 | CNc1nc(C)c2cc(-c3cn[nH]c3)c(=O)n(CC3CCOC3)c2n1 (stereo not drawn) [Compound 215, 4-methyl-2-(methylamino)-6-(1H-pyrazol-4-yl)-8-((tetrahydrofuran-3-yl)methyl)pyrido[2,3-d]pyrimidin-7(8H)-one]

IC50 (PI3-Kα) [µM] | IC50 [1] [µM] | Compound
0.0046 | 0.0456 | CNc1nc(C)c2cc(-c3ccc(OC)nc3)c(=O)n(CC3CCOC3)c2n1 (stereo not drawn) [Compound 216, 6-(6-methoxypyridin-3-yl)-4-methyl-2-(methylamino)-8-((tetrahydrofuran-3-yl)methyl)pyrido[2,3-d]pyrimidin-7(8H)-one]
0.0016 | 0.0135 | CNc1nc(C)c2cc(-c3cnc4[nH]ccc4c3)c(=O)n(CC3CCOC3)c2n1 (stereo not drawn) [Compound 217, 4-methyl-2-(methylamino)-6-(1H-pyrrolo[2,3-b]pyridin-5-yl)-8-((tetrahydrofuran-3-yl)methyl)pyrido[2,3-d]pyrimidin-7(8H)-one]
0.094 | 1.02 | Cc1nc(N)nc2c1cc(Br)c(=O)n2CC1CCOC1 (stereo not drawn) [Compound 218, 2-amino-6-bromo-4-methyl-8-((tetrahydrofuran-3-yl)methyl)pyrido[2,3-d]pyrimidin-7(8H)-one]
0.0028 | 0.0578 | Cc1nc(N)nc2c1cc(-c1cnc3[nH]ccc3c1)c(=O)n2CC1CCOC1 (stereo not drawn) [Compound 221, 2-amino-4-methyl-6-(1H-pyrrolo[2,3-b]pyridin-5-yl)-8-((tetrahydrofuran-3-yl)methyl)pyrido[2,3-d]pyrimidin-7(8H)-one]
0.1 | 2.13 | Cc1nc(N)nc2c1cc(Br)c(=O)n2CC1CCCO1 (stereo not drawn) [Compound 222, 2-amino-6-bromo-4-methyl-8-((tetrahydrofuran-2-yl)methyl)pyrido[2,3-d]pyrimidin-7(8H)-one]
0.021 | 0.12 | COc1ccc(-c2cc3c(C)nc(N)nc3n(CC3CCCO3)c2=O)cn1 (stereo not drawn) [Compound 224, 2-amino-6-(6-methoxypyridin-3-yl)-4-methyl-8-((tetrahydrofuran-2-yl)methyl)pyrido[2,3-d]pyrimidin-7(8H)-one]
0.0054 | 0.0366 | Cc1nc(N)nc2c1cc(-c1cnc3[nH]ccc3c1)c(=O)n2CC1CCCO1 (stereo not drawn) [Compound 225, 2-amino-4-methyl-6-(1H-pyrrolo[2,3-b]pyridin-5-yl)-8-((tetrahydrofuran-2-yl)methyl)pyrido[2,3-d]pyrimidin-7(8H)-one]
0.12 | 0.0415 | Cc1nc(N)nc2c1cc(-c1cn[nH]c1)c(=O)n2C1CN(C(=O)OC(C)(C)C)C1 [Compound 226, tert-butyl 3-(2-amino-4-methyl-7-oxo-6-(1H-pyrazol-4-yl)pyrido[2,3-d]pyrimidin-8(7H)-yl)azetidine-1-carboxylate]
0.029 | 0.318 | COc1ccc(-c2cc3c(C)nc(N)nc3n(C3CN(C(=O)OC(C)(C)C)C3)c2=O)cn1 [Compound 227]
0.038 | 0.256 | Cc1nc(N)nc2c1cc(-c1cnc3[nH]ccc3c1)c(=O)n2C1CN(C(=O)OC(C)(C)C)C1 [Compound 228, tert-butyl 3-(2-amino-4-methyl-7-oxo-6-(1H pyrrolo[2,3-b]pyridin-5 yl)pyrido[2,3-d]pyrimidin-8(7H)-yl)azetidine-1-carboxylate]
0.015 | 0.0179 | Cc1nc(N)nc2c1cc(-c1cnc(N)cn1)c(=O)n2C1CCCC1 [Compound 229, 2-amino-6-(5-aminopyrazin-2-yl)-8-cyclopentyl-4-methylpyrido[2,3-d]pyrimidin-7(8H)-one]
0.02 | 0.0339 | Cc1nc(N)nc2c1cc(-c1cncc(N)n1)c(=O)n2C1CCCC1 [Compound 230, 2-amino-6-(6-aminopyrazin-2-yl)-8-cyclopentyl-4-methylpyrido[2,3-d]pyrimidin-7(8H)-one]
0.17 | 3.45 | Cc1nc(N)nc2c1cc(-c1cccc(Cl)n1)c(=O)n2C1CCCC1 [Compound 231, 2-Amino-6-(6-chloro-pyridin-2-yl)-8-cyclopentyl-4-methyl-8H-pyrido[2,3-d]pyrimidin-7-one]
0.0089 | 0.0414 | CNc1nc(C)c2cc(-c3ccc(OC)nc3)c(=O)n(CCC3CC3)c2n1 [Compound 232, 8-(2-Cyclopropyl-ethyl)-6-(6-methoxy-pyridin-3-yl)-4-methyl-2-methylamino-8H-pyrido[2,3-d]pyrimidin-7-one]
0.011 | 0.0942 | COc1ccc(-c2cc3c(C)nc(N)nc3n(CCC3CC3)c2=O)cn1 [Compound 233, 2-Amino-8-(2-cyclopropyl-ethyl)-6-(6-methoxy-pyridin-3-yl)-4-methyl-8H-pyrido[2,3-d]pyrimidin 7-one]
0.039 | 0.314 | CNc1nc(C)c2cc(-c3cnn(C)c3)c(=O)n(C3CCCC3)c2n1 [Compound 234, 8-Cyclopentyl-4-methyl-2-methylamino-6-(1-melhyl-1H-pyrazol-4-yl)-8H-pyrido[2,3-d]pyrimidin-7-one]

Reference: US8633204B2 (Pfizer Inc., priority 2006, dated 2014)
